# Source: PubChem BioAssay (NCI)
# Several values for one entry are separate records, joined by “and”; a condition that tells them apart may be missing. Equal entries are not always repeated.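 48-hour exposure; five concentrations; linearly interpolated endpoints. GI50 = concentration required for 50% inhibition of growth. TGI denotes the concentration required for complete inhibition of growth.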
# Columns and labels:
# Assay in all cases: NCI tumour cell line growth inhibition, 48 h
# CCRF-CEM leukemia = tested on: CCRF-CEM leukemia
# MDA-MB-231 breast = tested on: MDA-MB-231 breast
# SF-268 CNS = tested on: SF-268 CNS
# SR leukemia = tested on: SR leukemia
# A498 renal = tested on: A498 renal
# MALME-3M melanoma = tested on: MALME-3M melanoma
# OVCAR-4 ovarian = tested on: OVCAR-4 ovarian
# HL-60(TB) leukemia = tested on: HL-60(TB) leukemia
# SN12C renal = tested on: SN12C renal
# CAKI-1 renal = tested on: CAKI-1 renal
Compound,GI50 (CCRF-CEM leukemia),TGI (CCRF-CEM leukemia),GI50 (MDA-MB-231 breast),TGI (MDA-MB-231 breast),GI50 (SF-268 CNS),TGI (SF-268 CNS),GI50 (SR leukemia),TGI (SR leukemia),GI50 (A498 renal),TGI (A498 renal),GI50 (MALME-3M melanoma),TGI (MALME-3M melanoma) [µM],GI50 (OVCAR-4 ovarian),TGI (OVCAR-4 ovarian),GI50 (HL-60(TB) leukemia),TGI (HL-60(TB) leukemia),GI50 (SN12C renal),TGI (SN12C renal),GI50 (CAKI-1 renal),TGI (CAKI-1 renal)
Clc1ccc(CSC(Cn2ccnc2)c2ccc(Cl)cc2Cl)cc1 (stereo unspecified),1.94 µM,5.46 µM,1.51 µM,2.98 µM,1.66 µM,3.83 µM,2.3 µM,5.8 µM,1.13 µM,2.33 µM,1.64 µM,3.15,1.37 µM,3.16 µM,2.15 µM,4.54 µM,1.53 µM,2.87 µM,1.55 µM,4.05 µM
O=C(Nc1ccc(Cl)c(Cl)c1)c1cccc(NC2=C(Cl)C(=O)N(Cc3ccccc3)C2=O)c1,23.4 µM,> 100 µM,26.4 µM,> 100 µM,34.9 µM,> 100 µM,8.37 µM,68 µM,23.8 µM,> 100 µM,62.1 µM,> 100,48.3 µM,> 100 µM,45.8 µM,> 100 µM,52.9 µM,> 100 µM,53.9 µM,> 100 µM
CC[C@]12CCCN3CCc4c(n(c5ccccc45)C(=O)C1)[C@@H]32,,33.1 µM,,> 86.3 µM,,> 75 µM,,18 µM,,> 65.9 µM,,> 67.9,,> 76.3 µM,,8.51 µM,,> 100 µM,,> 100 µM
COc1cccc2c1C(=O)C=CC2=O,,1.65 µM,,4.76 µM,,19.8 µM,,1.02 µM,,29.9 µM,,30.6,,3.77 µM,,1.09 µM,,27.4 µM,,13 µM
CC1(C)N=C(N)N=C(N)N1c1cccc(CCCCc2cccc(S(=O)(=O)F)c2)c1,0.559 µM,53.4 µM,6.6 µM,> 100 µM,0.887 µM,20.8 µM,0.355 µM,33.2 µM,7.36 µM,> 100 µM,8.47 µM,71.8,8.06 µM,> 100 µM,1.95 µM,47.8 µM,0.571 µM,> 100 µM,20.3 µM,> 100 µM
CN(C)CCOc1ccc(-c2nc(-c3ccc4c(c3)CC/C4=N\O)c(-c3ccncc3)[nH]2)cc1,4.32 µM and 2.43 µM,11.3 µM and 10.2 µM,3.27 µM and 1.63 µM,7.26 µM and 4.88 µM,4.38 µM and 7.26 µM,9.05 µM and 15.4 µM,5.48 µM and 3.64 µM,16.6 µM and 14.5 µM,4.68 µM and 8.84 µM,9.57 µM and 27.2 µM,0.00596 µM and 0.0186 µM,,4.72 µM and 6.69 µM,9.74 µM and 37.8 µM,2.83 µM and 2.45 µM,7.44 µM and 14.5 µM,4.68 µM and 9.41 µM,8.83 µM and 25.9 µM,5.18 µM and 16.9 µM,19.5 µM and 44.8 µM
COc1ccc2oc(=O)cc(C(c3ccc[nH]3)c3ccc[nH]3)c2c1,0.105 µM,29.9 µM,0.109 µM,6.05 µM,0.129 µM,16.3 µM,,3.79 µM,0.104 µM,0.437 µM,0.783 µM,17.7,0.303 µM,26.3 µM,< 0.0502 µM,,0.148 µM,15.8 µM,,13.1 µM
CC(=O)N[C@@H](Cc1ccc(OP(=O)(O)O)cc1)C(=O)N[C@H]1CCC(=O)N2CCC[C@@H](C(=O)NCc3ccc(Cl)cc3)N2C1=O,> 25 µM,> 25 µM,> 25 µM,> 25 µM,> 25 µM,> 25 µM,> 25 µM,> 25 µM,> 25 µM,> 25 µM,> 25 µM,> 25,> 25 µM,> 25 µM,> 25 µM,> 25 µM,> 25 µM,> 25 µM,> 25 µM,> 25 µM
C=C1C(=O)O[C@H]2[C@H]1CC/C(CNC(=O)Cc1c[nH]c3ccccc13)=C\CC[C@@]1(C)O[C@@H]21,0.303 µM,1.02 µM,3.87 µM,17.5 µM,2.62 µM,16.3 µM,0.314 µM,2.84 µM,13.8 µM,26.9 µM,3.42 µM,7.39,1.74 µM,15.7 µM,0.314 µM,1.02 µM,1.91 µM,18.3 µM,4.77 µM,17.1 µM
COc1ccc2[nH]c(=O)c3c4ccccc4cn3c2c1,0.322 µM,1.48 µM,1.24 µM,5.85 µM,0.516 µM,3.19 µM,0.125 µM,0.842 µM,0.383 µM,4.83 µM,0.911 µM,2.48,0.532 µM,2.78 µM,0.186 µM,0.548 µM,0.6 µM,7.17 µM,0.169 µM,0.839 µM
Nc1c(C(=O)c2cccc(CCCN3CCOCC3)c2)cnn1-c1ccc(F)cc1,> 25 µM,> 25 µM,> 25 µM,> 25 µM,> 25 µM,> 25 µM,> 25 µM,> 25 µM,> 17.6 µM,> 25 µM,> 25 µM,> 25,> 25 µM,> 25 µM,> 25 µM,> 25 µM,> 25 µM,> 25 µM,> 25 µM,> 25 µM
COc1c(C=O)c2c(c(OC)c1OC)-c1ccc(OC)c(=O)cc1[C@@H](NC(C)=O)CC2,,> 100 µM,,> 100 µM,,30.3 µM,,> 100 µM,,14.8 µM,,> 100,,> 100 µM,,0.0717 µM,,> 100 µM,,> 30.9 µM
CCOC(=O)c1ccc2[nH]c(-c3ccc(S(=O)(=O)F)cc3)cc(=O)c2c1,,> 100 µM,,> 100 µM,,> 100 µM,,> 100 µM,,68 µM,,90.6,,> 100 µM,,> 100 µM,,> 100 µM,,> 100 µM
CCSCC1CC(O)(c2ccccc2)C(c2ccccc2)C(c2ccc(Cl)cc2)O1 (stereo unspecified),2.03 µM,6.5 µM,1.82 µM,4.41 µM,2.1 µM,5.56 µM,2.15 µM,5.99 µM,1.79 µM,3.41 µM,1.58 µM,3.18,1.66 µM,4.35 µM,4.08 µM,8.28 µM,1.52 µM,3.13 µM,1.49 µM,4.06 µM
Cc1ccc([N+](=O)[O-])cc1NC(=O)Nc1cccc(F)c1,3.96 µM,> 100 µM,13.3 µM,96.6 µM,6.9 µM,> 100 µM,5.63 µM,64.6 µM,1.61 µM,9.76 µM,4.66 µM,51.8,3.96 µM,51.9 µM,4.02 µM,> 100 µM,5.18 µM,> 100 µM,3.35 µM,> 100 µM
CCCCON(OC(=O)c1ccccc1)C(=O)c1ccccc1,49.8 µM,> 100 µM,> 100 µM,> 100 µM,> 100 µM,> 100 µM,30.3 µM,> 100 µM,> 100 µM,> 100 µM,> 100 µM,> 100,> 100 µM,> 100 µM,88.7 µM,> 100 µM,> 100 µM,> 100 µM,> 100 µM,> 100 µM
